Data reported in US20060199230A1, “Use of prostate specific antigen to predict drug response” (Hybritech Incorporated, priority 2005, published 2006).

Key:
[1] = tested on: total PSA, proPSA, free PSA and BPSA in serum; test: Serum PSA forms at Time 0 and 1 month of dutasteride treatment; drug response = prostate volume decrease of 10% or more at 12 months (Example I); type: in vivo, men
Method: (§1) A cohort of serum samples from men greater or equal to 50 years of age with BPH were used. The PSA range was from 1.5 to 10 ng/ml (median 3.2 ng/ml). International Prostate Symptom Score (IPSS) upon entry were 11-32 (moderate to severe, median 18.5). The median Qmax (urine flow rate in cc per second) was 9.3. Men received TRUS for prostate volume at time 0 and then received dutasteride in a blinded fashion at a rate of 0.5 mg per day. Serum was obtained at 0, 1, 3, and 12 months and was assayed for total PSA, proPSA, free PSA and BPSA. IPSS symptom scores were determined at 0, 1 and 12 months. Additional TRUS for prostate volume was performed at 12 months after the start of drug treatment.
Serum from placebo and drug-treated men were tested for levels of PSA forms at Time 0 (pretreatment baseline), and at 1, 3 and 12 months after the start of placebo or drug treatment. […] In this plot, the decrease in prostate volume by 10% or more was used as the definition of drug response.

[2] = tested on: total PSA, proPSA, free PSA and BPSA in serum; test: Serum PSA forms at Time 0 and 1 month of dutasteride treatment; drug response = IPSS decrease of 2 or more at 12 months (Example II); type: in vivo, men
Method: as §1
The concentrations of total PSA, free PSA, proPSA, and BPSA were examined at Time 0 (pretreatment baseline) and at 1 month after drug treatment. Drug response was defined as men who had improvement (decrease) in their IPSS of equal to 2 or greater after 12 months of treatment. […] The increases in the ratio of BPSA to total PSA and the ratio of BPSA to free PSA were also highly significant.
Another method of determining a cutoff for clinical utility is to calculate the Odds Ratio of a response to drug treatment at 12 months, based on the percentage change in a measured parameter at 1 month. In this case, the odds of responding to the drug (drop of 2 or more in the IPSS at 12 months) increases with increasing ratio of BPSA to proPSA at 1 month. […] With a >250% increase of BPSA to proPSA ratio over baseline at 1 month, there is at least a 2-fold increase in the odds of having a drug response at 12 months. An Odds Ratio of at least 2 is the preferred embodiment of the invention. Using Odds Ratio as a means to set a cutoff for the increase in the ratio of BPSA to proPSA would have a preferred cutoff of 250%.

[3] = about 1 month after drug administration, men with 10% or greater decrease in prostate volume at 12 months
[4] = median after 1 month of drug, 0.5 mg per day, men with decrease of 10% or more in prostate volume at 12 months
[5] = median, pretreatment baseline, drug-treated men with decrease of 10% or more in prostate volume at 12 months
[6] = Table 3, samples with a decrease of 2 or more in IPSS
[7] = about 1 month, IPSS reduction of 2 or greater at 12 months as drug response
[8] = median after 1 month of drug, 0.5 mg per day, men with improvement in IPSS of 2 or more at 12 months
[9] = median, pretreatment baseline, drug-treated men with improvement in IPSS of 2 or more at 12 months

C[C@]12C=CC(=O)N[C@@H]1CC[C@@H]1[C@@H]2CC[C@]2(C)[C@@H](C(=O)Nc3cc(C(F)(F)F)ccc3C(F)(F)F)CC[C@@H]12 [dutasteride]
total PSA and free PSA levels at 3 months ([1]; 3 months of drug treatment): the levels decrease at 3 months | decrease in proPSA [1, 3]: 48% | increase in BPSA [1, 3]: 86% | increase of the ratio of BPSA to PSA [1, 3]: 78% | increase of the ratio of BPSA to free PSA [1, 3]: 52% | increase of the ratio of BPSA to proPSA over the baseline ratio [1, 3]: 450% | change in total PSA, free PSA, or the ratio of free to total PSA at 1 month ([1]; drug responders: decrease in prostate volume by 10% or more after 12 months): no significant change | change in BPSA at 1 month in drug non-responders ([1]; drug-treated men with less than 10% decrease in prostate volume at 12 months): no significant increase | BPSA, 1 Month [1, 4]: 0.186 ng/mL | BPSA/free PSA, 1 Month [1, 4]: 0.230 | BPSA/proPSA, 1 Month [1, 4]: 2.26 | BPSA/total PSA, 1 Month [1, 4]: 0.050 | Free PSA, 1 Month [1, 4]: 0.76 ng/mL | Free PSA/total PSA, 1 Month [1, 4]: 0.214 | Total PSA, 1 Month [1, 4]: 3.14 ng/mL | proPSA, 1 Month [1, 4]: 0.097 ng/mL | BPSA, Time 0 [1, 5]: 0.100 ng/mL | BPSA/free PSA, Time 0 [1, 5]: 0.151 | BPSA/proPSA, Time 0 [1, 5]: 0.499 | BPSA/total PSA, Time 0 [1, 5]: 0.028 | Free PSA, Time 0 [1, 5]: 0.70 ng/mL | Free PSA/total PSA, Time 0 [1, 5]: 0.204 | Total PSA, Time 0 [1, 5]: 3.02 ng/mL | proPSA, Time 0 [1, 5]: 0.204 ng/mL | BPSA level at three months vs baseline ([1]; three months after the start of drug administration, FIG. 1): decline below the baseline level | BPSA, median value at 1 month, Drug [2, 6]: 0.091, 0.151 ng/ml | BPSA/free PSA, median value at 1 month, Drug [2, 6]: 0.228 | BPSA/total PSA, median value at 1 month, Drug [2, 6]: 0.032, 0.046 | Free PSA, median value at 1 month, Drug [2, 6]: 0.62, 0.67 ng/ml | Free PSA/total PSA, median value at 1 month, Drug [2, 6]: 0.22, 0.21 | Total PSA, median value at 1 month, Drug [2, 6]: 3.00, 3.08 ng/ml | decrease in proPSA [2, 7]: 41% | increase in BPSA to proPSA ratio over baseline [2, 7]: 230% | increase in BPSA/free PSA ratio [2, 7]: 44% | increase in BPSA/total PSA ratio [2, 7]: 59% | increase in BPSA ([2]; about 1 month, IPSS reduction of 2 or greater at 12 months as drug response, not significant): 25% | BPSA, 1 Month [2, 8]: 0.151 ng/mL | BPSA/free PSA, 1 Month [2, 8]: 0.228 | BPSA/proPSA, 1 Month [2, 8]: 1.32 | BPSA/total PSA, 1 Month [2, 8]: 0.046 | Free PSA, 1 Month [2, 8]: 0.67 ng/mL | Free PSA/total PSA, 1 Month [2, 8]: 0.21 | Total PSA, 1 Month [2, 8]: 3.14 ng/mL | proPSA, 1 Month [2, 8]: 0.103 ng/mL | BPSA, Time 0 [2, 9]: 0.120 ng/mL | BPSA/free PSA, Time 0 [2, 9]: 0.158 | BPSA/proPSA, Time 0 [2, 9]: 0.584 | BPSA/total PSA, Time 0 [2, 9]: 0.029 | Free PSA, Time 0 [2, 9]: 0.77 ng/mL | Free PSA/total PSA, Time 0 [2, 9]: 0.19 | Total PSA, Time 0 [2, 9]: 3.68 ng/mL | proPSA, Time 0 [2, 9]: 0.253 ng/mL | difference in any PSA-related parameter, Time 0 vs 1 month, drug non-responders ([2]; men with IPSS improvement of less than 2): None of the placebo samples, or the men with IPSS improvement of less than 2 (drug non-responders), showed statistically a significant difference
